Experiments:
[1] = In vitro drug release through both the wall and apertures of silicone tube devices; format: physicochemical; conditions: in vitro in water at about 37° C
Protocol: Another study was performed to investigate the feasibility of delivering drug from a device through both a wall of a drug reservoir and from an aperture in the wall of the drug reservoir. Devices were formed form silicone tubes having a length of about 3 cm. The devices were loaded with solid drug tablets of lidocaine base, for a total payload of about 60 mg. […] The devices were tested in vitro in water at about 37° C.

[2] = In vitro drug release by diffusion through the wall of silicone tube devices; format: physicochemical; conditions: silicone tube ID about 0.060 in, OD 0.076 in, length about 3 cm; solid tablets, payload about 60 mg; no aperture; in vitro in water at about 37° C
Protocol: A study was performed to determine the feasibility of delivering drug through the wall of a drug reservoir via diffusion. Devices were formed form silicone tubes having an inner diameter of about 0.060 inches, an outer diameter of 0.076 inches, and a length of about 3 cm. The devices were loaded with solid drug tablets of lidocaine, for a total payload of about 60 mg. Some of the devices included an aperture formed through the tube wall, the aperture having a diameter of 150 μm. These devices were loaded with solid tablets of either lidocaine hydrochloride monohydrate or a combination of lidocaine hydrochloride monohydrate and lidocaine base. […] The devices were tested in vitro in water at about 37° C.

Structure (SMILES): CCN(CC)CC(=O)Nc1c(C)cccc1C [lidocaine base]
- effect of apertures on release rate ([1]; devices with 0, 1 (150 μm), 2, 30 or 60 (360 μm) apertures): release rate can be increased by adding apertures to the device
- release from a silicone tube without any apertures ([1]; silicone tubes about 3 cm, solid tablets, payload about 60 mg): can be released from a silicone tube without any apertures
- delivery of drug via diffusion through a silicone wall without an aperture [2]: feasible to deliver drug via diffusion through a silicone wall without an aperture

From patent US10543166B2, “Implantable drug delivery devices and methods of making the same” (TARIS Biomedical LLC, priority 2009, dated 2020)
